In patent US20060014733A1, “Histamine-3 agonists and antagonists” (Pfizer Inc, priority 2004, published 2006):

Target: T1, rat histamine H3 receptors (Rattus norvegicus, UniProt Q9QYN8)
T1 construct: Frozen rat frontal brain or frozen human post-mortem frontal brain is homogenized; from tissue; host or cells: rat frontal brain membranes
Assay: Rat H3 binding (3H-N-methylhistamine displacement, rat frontal brain membranes)
Settings: radioligand 1 nM 3H-N-methylhistamine, 1 hour incubation
Protocol: The in vitro affinity of the compounds in the present invention at the rat or human histamine H3 receptors can be determined according to the following procedure. Frozen rat frontal brain or frozen human post-mortem frontal brain is homogenized in 20 volumes of cold 50 mM Tris HCl containing 2 mM MgCl2 (pH to 7.4 at 4 degrees C.). The homogenate is then centrifuged at 45,000 G for 10 minutes. The supernatant is decanted and the membrane pellet re-suspended by Polytron in cold 50 mM Tris HCl containing 2 mM MgCl2 (pH to 7.4 at 4 degrees C.) and centrifuged again. The final pellet is re-suspended in 50 mM Tris HCl containing 2 mM MgCl2 (pH to 7.4 at 25 degrees C.) at a concentration of 12 mg/mL. Dilutions of compounds are made in 10% DMSO/50 mM Tris buffer (pH 7.4) (at 10×final concentration, so that the final DMSO concentration is 1%). Incubations are initiated by the addition of membranes (200 microliters) to 96 well V-bottom polypropylene plates containing 25 microliters of drug dilutions and 25 microliters of radioligand (1 nM final concentration ^3H-N-methylhistamine). After a 1 hour incubation, assay samples are rapidly filtered through Whatman GF/B filters and rinsed with ice-cold 50 mM Tris buffer (pH 7.4) using a Skatron cell harvester. Radioactivity is quantified using a BetaPlate scintillation counter.

T1 sequence (Q9QYN8 whole entry): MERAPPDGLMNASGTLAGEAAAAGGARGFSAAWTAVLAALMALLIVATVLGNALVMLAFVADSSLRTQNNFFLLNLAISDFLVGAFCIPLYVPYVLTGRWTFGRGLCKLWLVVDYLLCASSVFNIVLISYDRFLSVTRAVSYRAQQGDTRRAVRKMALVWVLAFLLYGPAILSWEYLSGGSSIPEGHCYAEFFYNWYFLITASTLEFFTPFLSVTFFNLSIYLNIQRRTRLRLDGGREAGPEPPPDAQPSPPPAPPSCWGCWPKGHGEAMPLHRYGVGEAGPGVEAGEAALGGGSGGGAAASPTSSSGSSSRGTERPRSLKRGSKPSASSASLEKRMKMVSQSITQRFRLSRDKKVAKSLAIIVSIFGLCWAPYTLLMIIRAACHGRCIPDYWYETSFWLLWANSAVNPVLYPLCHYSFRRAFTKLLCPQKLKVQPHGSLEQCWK

SMILES	Ki
CN(C)[C@H]1CCN(Cc2ccc(-c3ccc(S(C)(=O)=O)cc3)cc2)C1 [Example 42, (S)-[1-(4′-Methanesulfonyl-biphenyl-4-ylmethyl)-pyrrolidin-3-yl]-dimethylamine]	55 nM
CN(C)[C@@H]1CCN(Cc2ccc(C3CCNCC3)cc2)C1 [Example 46, (R)-[1-(4-piperidin-4-ylbenzyl)-pyrrolidin-3-yl]-dimethylamine]	136 nM
CN(C)[C@H]1CCN(Cc2ccc(C3CCNCC3)cc2)C1 [Example 47]	33 nM

More lines, in order of falling Ki, values ahead:

Ki	SMILES
139 nM	CC(=O)Nc1cccc(-c2ccc(CN3CC[C@H](N(C)C)C3)cc2)c1 [Example 44, (S)-N-[4′-(3-Dimethylamino-pyrrolidin-1-ylmethyl)-biphenyl-3-yl]-acetamide]
75 nM	CC(=O)Nc1cccc(-c2ccc(CN3CC[C@@H](N(C)C)C3)cc2)c1 [Example 45, (R)-N-[4′-(3-Dimethylamino-pyrrolidin-1-ylmethyl)-biphenyl-3-yl]-acetamide]
72 nM	CN(C)[C@@H]1CCN(Cc2ccc(-c3ccc(S(C)(=O)=O)cc3)cc2)C1 [Example 43, (R)-[1-(4′-Methanesulfonyl-biphenyl-4-ylmethyl)-pyrrolidin-3-yl]-dimethylamine]
